# Measured values from US11857555B2, “Aqueous pharmaceutical formulation of hydrocortisone sodium phosphate and monothioglycerol” (ANTARES PHARMA, INC., priority 2020, dated 2024).
# Columns and labels:
# [1] = Forced degradation of HCP API under stress conditions (0.1 N HCl, 0.1 N NaOH, dry heat); type: physicochemical; conditions: 3 different stress conditions: 0.1 N HCl, qualitative
# Description: To develop this method, Hydrocortisone sodium phosphate API was kept under stress conditions. These stress conditions included treatment with 0.1 N HCl, 0.1 N NaOH and dry heat. This was performed to investigate the nature of API and its compatibility with the stress conditions. It also helped generate degradation products to assess the specificity of the HPLC method under development. Information on degradation products and the conditions used to generate them was used to optimize the method for better resolution of such degradation products on chromatogram. FIGS. 3A-3C show chromatograms of HCP under stress conditions.
# The proportions in which the degradants formed depended on the stress condition. Stress studies performed on the API were done for qualitative purpose only.
# [2] = light, strong acids and alkalies; cited from earlier work
SMILES,forced degradation outcome (in words) [1],stability (in words) [2]
"C[C@]12CCC(=O)C=C1CC[C@@H]1[C@@H]2[C@@H](O)C[C@@]2(C)[C@H]1CC[C@]2(O)C(=O)COP(=O)([O-])[O-].[Na+].[Na+] [HCP, Hydrocortisone sodium phosphate]","formation of Hydrocortisone, other common degradants",
C[C@]12CCC(=O)C=C1CC[C@@H]1[C@@H]2[C@@H](O)C[C@@]2(C)[C@H]1CC[C@]2(O)C(=O)CO [Hydrocortisone],,sensitive to light and unstable in strong acids and alkalies
